Test results published in patent US20250387388A1, “COMPOUND AS TRK INHIBITOR AND/OR RET INHIBITOR AND USE THEREOF” (Medinno Pharmaceutical Technology (Zhuhai) Co., Ltd., priority 2022, published 2025).

Key:
RET = RET (Homo sapiens (Human), UniProt P07949); experiment: Inhibitory activity on RET kinase (HTRF KinEASE-TK); assay type: biochemical; conditions: ATP 16 μM
Source text: 3) Formulate 2.5× kinase with 1× kinase reaction buffer.

[1] = test system: ovalbumin-induced asthma model in mice; experiment: Ovalbumin-induced asthma model in mice; assay type: in vivo, Balb/c mice; conditions: nasal administration BID 5 days: MDI-1228 3 mg/kg, MDI-1288 3 mg/kg, MDI-1233 1, 3, 10 mg/kg; for Bronchoalveolar lavage fluid IL-5 expression level / Inflammatory cell count in bronchoalveolar lavage fluid / Lung tissue inflammatory cell infiltration (HE pathology) / Serum IgE expression level: vs. vehicle (model) group, dexamethasone 1 mg/kg gavage QD
Method: After 7 days of acclimatization, animals were randomly grouped based on their body weight. The experiment was divided into 8 groups, with 8 mice in each group, as detailed in the table below.
• Preparation of Immunogen: Weigh an appropriate amount of OVA, to which an appropriate amount of PBS was added, to achieve a final concentration of 0.1 mg/ml. Then, an equal volume of aluminum adjuvant was added, and the resulting mixture was mixed well, and stored at 4° C., which was prepared before use. • Preparation of Sensitizer (5% OVA): Weigh an appropriate amount of OVA, to which an appropriate amount of PBS was added, to achieve a final concentration of 5%. The resulting mixture was mixed well, and store it at 4° C. for later use, which was prepared before use. • Preparation of Vehicle: Add 200 μl of Tween 80 to 100 ml of saline, and mix it well. […] Mix it well, and store it at 4° C. for later use. […] Mix it well, and store it at 4° C. for later use. […] Mix it well, and store it at 4° C. for later use. The solution was prepared once every three days.
• Immunization: On days 0, 7, 14, and 21, 200 μl of PBS was injected intraperitoneally for the first group, and 200 μl of (10 μg) OVA/aluminum adjuvant emulsion was injected intraperitoneally for groups 2-8. • Sensitization: From days 28 to 32, the first group of animals was exposed to nebulized PBS in a nebulization box for 20 minutes, and the groups 2-8 were exposed to nebulized 5% OVA in a nebulization box for 20 minutes. And then, they were removed. The sensitization was conducted at 12:30 PM daily. • Administration: The medicine was administrated twice a day at 9 AM and 5 PM via nasal drops. Dexamethasone (Dex) was administered by gavage once a day at 9 AM.
Serum IgE: Blood was collected from the orbits of animals after carbon dioxide euthanasia, and plasma was separated and stored at −40 degrees for plasma IgE detection.
Bronchoalveolar Lavage Fluid (BALF) Cell Count: An appropriate amount of foetal bovine serum was weighted and dissolved in PBS to a final concentration of 1%. After orbital blood collection, the trachea was exposed, and a 1 ml syringe needle was replaced with a mouse gavage needle. 0.8 ml of the lavage fluid was aspirated from the syringe and the lungs were lavaged three times. The lavage fluids were collected, and centrifuged at 1000 rpm for 10 minutes, and the supernatant was collected and stored at −40 degrees Celsius. Cells were resuspended with 1 ml of PBS and counted. 100 ul of centrifuged smear was taken and stained with Diff quick and the number of eosinophils, basophils, lymphocytes and macrophages were recorded.
Bronchoalveolar Lavage Fluid IL-5: Bronchoalveolar lavage fluid was collected to detect IL-5.
Pathological scoring criteria were: • A) 0 points: No lymphocyte infiltration; • B) 1 point: Trace lymphocyte infiltration; • C) 2 points: Mild lymphocyte infiltration; • D) 3 points: Moderate lymphocyte infiltration; • E) 4 points: Severe lymphocyte infiltration; • After scoring, the results were calculated and analyzed.

[2] = test system: allergic rhinitis model in mice; experiment: Allergic rhinitis model in mice (OVA); assay type: in vivo, BALB/C mice; conditions: nasal drops twice a day, 7-day treatment; MDI-1233 10 mg/kg, MDI-1228 3 mg/kg, MDI-1288 3 mg/kg; fluticasone propionate positive control
Method: 42-49 day-old BALB/C mice (Manufacturer: Liaoning Changsheng Biotechnology Co., Ltd., License Number: SCXK(therapeutic)2015-0001), both male and female, were reared under conventional diet, at a temperature of 20 to 26° C., and a humidity of 40% to 70%. Animal grouping and modeling: • 1. Blank control group (no treatment) • 2. Allergic rhinitis group (vehicle treatment: saline containing 0.2% Tween 80) • 3. Allergic rhinitis+compound MDI-1233: 1 mg/kg • 4. Allergic rhinitis+compound MDI-1233: 3 mg/kg • 5. Allergic rhinitis+compound MDI-1233: 10 mg/kg • 6. Allergic rhinitis+compound MDI-1228: 3 mg/kg • 7. Allergic rhinitis+compound MDI-1288: 3 mg/kg • 8. Allergic rhinitis+positive control group (Fluticasone propionate, GlaxoSmithKline, E88D
The preparation of an AR model in mice involved sensitizing and challenging BALB/c mice with ovalbumin (OVA) to simulate an acute symptoms caused by natural exposure to an allergen. The experimental animals were weighed and separated by gender. Sensitization was performed on days 1, 5, 9, and 12. From day 13, a daily challenge was carried out for 7 consecutive days. After the last challenge, behavior of the mice was observed and scored. The sensitization method involved intraperitoneal injection of an OVA (Sigma, A5503-1G) suspension in 50 μg/ml in which the OVA suspension was prepared by dissolving 500 μg of ovalbumin and 50 mg of AL(OH)3 (CAS 21645-51-2) into 10 ml of normal saline, pH 7.4, with 200 μl injected per mouse. […] On day 12, a single nasal challenge with 10% OVA was performed (PBS was used for the control group). Scoring was conducted according to the table below, using a superposition method to calculate the total score. A total score greater than 5 was considered as successful. Subsequent experiments were conducted after the modeling was deemed successful.
From day 13, compound administration and challenge were conducted. The compound administration method involved calculating the nasal drops volume according to the mouse's body weight and group requirements, and dissolving the compounds MDI-1233, MDI-1228, MDI-1288 into normal saline containing 0.2% Tween 80 at specific concentrations. The administration was given 30 minutes before the challenge, twice a day. The positive control treatment involved administering nasal drop once (10 μl per side) 30 minutes before OVA nasal stimulation, twice a day. Thirty minutes after the second drug administration, a 10% OVA challenge was conducted, and the amount of nasal discharge, sneezing, and nose scratching were observed and recorded within 30 minutes after each challenge and then scored. The control group was treated with normal saline nasal drops.
After the rhinitis modeling was completed and the scores were stable, mice of each group were anesthetized and sacrificed after a 20-day scoring. Samples were collected, and peripheral serum was obtained by collecting whole blood, and standing it at room temperature for 1 hour and then centrifuging it to collect the supernatant for ELISA detection; nasal mucosa was taken for HE staining (fixed with 10% formalin); and the supernatant of nasal lavage fluid was taken for ELISA detection.
(1) HE Staining: The tissue was rinsed with running water for several hours, dehydrated through a series of ethanol solutions (70%, 80%, 90%), and then treated with a mixture of pure alcohol and xylene for 15 minutes, followed by xylene I for 15 minutes and xylene I1 for 15 minutes (until transparent). The tissue was then placed in a mixture of xylene and paraffin at a volume ratio of 1:1 for 15 minutes, followed by immersion with paraffin I and paraffin II each for 50-60 minutes. The tissue was embedded in paraffin and sectioned, and the sections were spreaded, dried, dewaxed and hydrated in distilled water. […]

Chain of RET (P07949 29-1114): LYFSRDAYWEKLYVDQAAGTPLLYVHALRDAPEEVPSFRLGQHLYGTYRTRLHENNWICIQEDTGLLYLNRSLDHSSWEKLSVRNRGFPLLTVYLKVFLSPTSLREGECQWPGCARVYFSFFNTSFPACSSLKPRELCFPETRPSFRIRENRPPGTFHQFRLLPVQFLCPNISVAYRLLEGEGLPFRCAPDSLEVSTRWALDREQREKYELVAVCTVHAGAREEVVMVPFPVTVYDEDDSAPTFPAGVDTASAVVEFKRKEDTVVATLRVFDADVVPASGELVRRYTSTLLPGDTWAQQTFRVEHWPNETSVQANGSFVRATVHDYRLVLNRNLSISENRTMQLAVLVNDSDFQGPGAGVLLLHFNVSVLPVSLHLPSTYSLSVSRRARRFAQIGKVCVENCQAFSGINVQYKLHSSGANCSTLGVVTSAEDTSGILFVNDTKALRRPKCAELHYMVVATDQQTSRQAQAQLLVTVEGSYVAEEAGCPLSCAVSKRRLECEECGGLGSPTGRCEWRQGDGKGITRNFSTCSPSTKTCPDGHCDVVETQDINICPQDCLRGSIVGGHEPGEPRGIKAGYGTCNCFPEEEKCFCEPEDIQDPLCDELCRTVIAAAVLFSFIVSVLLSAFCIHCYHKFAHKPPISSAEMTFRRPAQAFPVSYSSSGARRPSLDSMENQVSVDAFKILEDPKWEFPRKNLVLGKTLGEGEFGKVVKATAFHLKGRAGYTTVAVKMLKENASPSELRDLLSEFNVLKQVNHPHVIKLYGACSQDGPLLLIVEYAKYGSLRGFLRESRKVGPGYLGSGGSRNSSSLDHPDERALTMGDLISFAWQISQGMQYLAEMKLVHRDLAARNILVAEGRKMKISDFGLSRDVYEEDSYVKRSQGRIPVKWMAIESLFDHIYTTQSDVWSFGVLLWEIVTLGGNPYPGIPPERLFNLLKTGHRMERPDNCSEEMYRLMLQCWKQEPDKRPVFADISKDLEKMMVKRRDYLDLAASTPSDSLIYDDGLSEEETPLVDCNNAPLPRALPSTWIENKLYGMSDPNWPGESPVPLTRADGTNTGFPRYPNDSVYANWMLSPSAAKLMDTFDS

CCc1cc(O)c(F)cc1-c1ccc2c(-c3nc4c([nH]3)CN(C(=O)NCC(O)CCl)C4)n[nH]c2c1 (centres unmarked) [MDI-1288]
IC50 (RET): 3.43 nM
Therapeutic effect on the asthma animal model (lung tissue pathological scoring) [1]: certain therapeutic effect
Bronchoalveolar lavage fluid IL-5 expression level [1]: significantly reduced the expression of IL-5
Inflammatory cell count in bronchoalveolar lavage fluid [1]: significantly reduced the Inflammatory Cell Count
Lung tissue inflammatory cell infiltration (HE pathology) [1]: significantly reduced the lung tissue inflammatory cell infiltration
Serum IgE expression level [1]: significantly reduced the expression of IgE
Rhinitis behavioral scoring [2]: showed inhibitory effects on both male and female mouse rhinitis models

CCc1cc(O)c(F)cc1-c1ccc2c(-c3nc4c([nH]3)CN(C(=O)N3CC[C@H](O)C3)C4)n[nH]c2c1 [MDI-1228, (S)-(2-(6-(2-ethyl-5-fluoro-4-hydroxyphenyl)-1H-indazol-3-yl)-4,6-dihydropyrrolo[3,4-d]imidazol-5-(1H)-yl)(3-hydroxylpyrrolidin-1-yl)ketone]
IC50 (RET): 0.62 nM
Therapeutic effect on the asthma animal model (lung tissue pathological scoring) [1]: certain therapeutic effect
Bronchoalveolar lavage fluid IL-5 expression level [1]: significantly reduced the expression of IL-5
Inflammatory cell count in bronchoalveolar lavage fluid [1]: significantly reduced the Inflammatory Cell Count
Lung tissue inflammatory cell infiltration (HE pathology) [1]: significantly reduced the lung tissue inflammatory cell infiltration
Serum IgE expression level [1]: significantly reduced the expression of IgE
Rhinitis behavioral scoring [2]: did not significantly inhibit the allergic response in male mice
